Measurements as given in patent US20200339691A1, “PROTEINACEOUS MOLECULES AND USES THEREFOR” (priority 2018, published 2020).
Where a SMILES comes first, the peptide text is derived from it. The star is where a group is joined. Myristoyl = CCCCCCCCCCCCCC(=O)*

How the values were obtained:
[1] = test system: CD44^hiCD24^lo CSCs in MDA-MB-231 cells; test: FACS analysis of CD44^hiCD24^lo cancer stem cells in MDA-MB-231 cells treated with P1 analogues; format: cell-based, human; settings: 50 μM peptide, 48 hours; for CD44^hiCD24^lo CSCs (%) / COI, Live Single CD44^hiCD24^lo CSCs (Cell Count): n = 1; for Average Inhibition of CSCs (%) / CD44^hiCD24^lo CSCs (%) Repeat 1 / CD44^hiCD24^lo CSCs (%) Repeat 2 / CD44^hiCD24^lo CSCs (%) Repeat 3: n = 3
Description: Analogues of P1 (Table 6) were designed and synthesized in accordance with the procedure of Example 5. The ability of these analogues to inhibit cancer stem cells was determined using FACS analysis on MDA-MB-231 cells, which constitutively contain approximately 90% CD44^hiCD24^lo cancer stem cells, treated with the peptides.
(§1) Non-adherent cells were removed during the washing steps.

[2] = test system: MDA-MB-231 cells; format: cell-based, human; settings: 50 μM peptide, 48 hours, n = 1;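 as to COI, Live Single Cells (Cell Count): live means Hoechst-negative events among single cells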
Source text: as §1

CCCCCCCCCCCCCC(=O)N[C@@H](CC(C)C)C(=O)N[C@H](C(=O)N[C@@H](Cc1ccccc1)C(=O)N[C@H](C(=O)N[C@@H](Cc1ccccc1)C(=O)N[C@@H](CCCNC(=N)N)C(=O)N[C@@H](CC(C)C)C(=O)N[C@@H](CCCNC(=N)N)C(=O)N[C@@H](CCCCN)C(=O)NCC(=O)N[C@@H](CCCNC(=N)N)C(=O)N[C@@H](CCSC)C(=O)N[C@@H](CCSC)C(=O)N[C@H](C(=O)N[C@H](C(=O)N[C@@H](CCCCN)C(=O)N[C@@H](CCCCN)C(N)=O)C(C)C)C(C)C)[C@@H](C)CC)[C@@H](C)O [Peptide 2853837, Myristoyl-LTFIFRLRKGRMMVVKK-NH2] (Myristoyl-LTFIFRLRKGRMMVVKK-NH2)
Inhibition of CSCs (%) Repeat 1 [1]: 93.82%
Inhibition of CSCs (%) Repeat 2 [1]: 93.76%
Inhibition of CSCs (%) Repeat 3 [1]: 88.86%
CD44^hiCD24^lo CSCs (%) [1]: 5.53%
COI, Live Single CD44^hiCD24^lo CSCs (Cell Count) [1]: 13
Average Inhibition of CSCs (%) [1]: 92.15%
CD44^hiCD24^lo CSCs (%) Repeat 1 [1]: 5.54%
CD44^hiCD24^lo CSCs (%) Repeat 2 [1]: 5.59%
CD44^hiCD24^lo CSCs (%) Repeat 3 [1]: 10.00%
COI (Cell Count) [2]: 452
COI, Live Single Cells (Cell Count) [2]: 235
COI, Single (Cell Count) [2]: 364
Total Cell Count [2]: 4805

CCCCCCCCCCCCCC(=O)N[C@@H](CC(C)C)C(=O)N[C@H](C(=O)N[C@@H](Cc1ccccc1)C(=O)N[C@H](C(=O)N[C@@H](Cc1ccccc1)C(=O)N[C@@H](CCCNC(=N)N)C(=O)N[C@@H](CC(C)C)C(=O)N[C@@H](CCCNC(=N)N)C(=O)N[C@@H](CCCCN)C(=O)NCC(=O)N[C@@H](CCCNC(=N)N)C(=O)N[C@@H](CCSC)C(=O)N[C@@H](CCSC)C(=O)N[C@@H](CC(=O)O)C(=O)N[C@@H](CCC(=O)O)C(=O)N[C@@H](CCCCN)C(=O)N[C@@H](CCCCN)C(N)=O)[C@@H](C)CC)[C@@H](C)O [Peptide 2853838, Myristoyl-LTFIFRLRKGRMMDEKK-NH2] (Myristoyl-LTFIFRLRKGRMMDEKK-NH2)
Inhibition of CSCs (%) Repeat 1 [1]: 86.55%
Inhibition of CSCs (%) Repeat 2 [1]: 81.44%
Inhibition of CSCs (%) Repeat 3 [1]: 86.40%
CD44^hiCD24^lo CSCs (%) [1]: 10.16%
COI, Live Single CD44^hiCD24^lo CSCs (Cell Count) [1]: 31
Average Inhibition of CSCs (%) [1]: 84.80%
CD44^hiCD24^lo CSCs (%) Repeat 1 [1]: 12.05%
CD44^hiCD24^lo CSCs (%) Repeat 2 [1]: 16.65%
CD44^hiCD24^lo CSCs (%) Repeat 3 [1]: 12.20%
COI (Cell Count) [2]: 408
COI, Live Single Cells (Cell Count) [2]: 305
COI, Single (Cell Count) [2]: 333
Total Cell Count [2]: 888

CCCCCCCCCCCCCC(=O)N[C@@H](CC(C)C)C(=O)N[C@H](C(=O)N[C@@H](Cc1ccccc1)C(=O)N[C@H](C(=O)N[C@@H](Cc1ccccc1)C(=O)N[C@@H](CCCNC(=N)N)C(=O)N[C@@H](CC(C)C)C(=O)N[C@@H](CCCNC(=N)N)C(=O)N[C@@H](CCCCN)C(=O)NCC(=O)N[C@@H](CCCNC(=N)N)C(=O)N[C@@H](CCSC)C(=O)N[C@@H](CCSC)C(=O)N[C@@H](CC(=O)O)C(=O)N[C@H](C(=O)N[C@@H](CCCNC(=N)N)C(=O)N[C@@H](CCCCN)C(N)=O)C(C)C)[C@@H](C)CC)[C@@H](C)O [Peptide 2853840, Myristoyl-LTFIFRLRKGRMMDVRK-NH2] (Myristoyl-LTFIFRLRKGRMMDVRK-NH2)
Inhibition of CSCs (%) Repeat 1 [1]: 82.01%
Inhibition of CSCs (%) Repeat 2 [1]: 81.08%
Inhibition of CSCs (%) Repeat 3 [1]: 83.80%
CD44^hiCD24^lo CSCs (%) [1]: 18.83%
COI, Live Single CD44^hiCD24^lo CSCs (Cell Count) [1]: 58
Average Inhibition of CSCs (%) [1]: 82.30%
CD44^hiCD24^lo CSCs (%) Repeat 1 [1]: 16.13%
CD44^hiCD24^lo CSCs (%) Repeat 2 [1]: 16.97%
CD44^hiCD24^lo CSCs (%) Repeat 3 [1]: 14.54%
COI (Cell Count) [2]: 709
COI, Live Single Cells (Cell Count) [2]: 308
COI, Single (Cell Count) [2]: 487
Total Cell Count [2]: 3715

CCCCCCCCCCCCCC(=O)N[C@@H](CC(C)C)C(=O)N[C@H](C(=O)N[C@@H](Cc1ccccc1)C(=O)N[C@H](C(=O)N[C@@H](Cc1ccccc1)C(=O)N[C@@H](CCCNC(=N)N)C(=O)N[C@@H](CC(C)C)C(=O)N[C@@H](CCCNC(=N)N)C(=O)N[C@@H](CCCCN)C(=O)NCC(=O)N[C@@H](CCCNC(=N)N)C(=O)N[C@@H](CCSC)C(=O)N[C@@H](CCSC)C(=O)N[C@@H](CC(=O)O)C(=O)N[C@H](C(=O)N[C@@H](CCC(=O)O)C(=O)N[C@@H](CCCCN)C(N)=O)C(C)C)[C@@H](C)CC)[C@@H](C)O [Peptide 2853841, Myristoyl-LTFIFRLRKGRMMDVEK-NH2] (Myristoyl-LTFIFRLRKGRMMDVEK-NH2)
Inhibition of CSCs (%) Repeat 1 [1]: 78.06%
Inhibition of CSCs (%) Repeat 2 [1]: 79.59%
Inhibition of CSCs (%) Repeat 3 [1]: 80.30%
CD44^hiCD24^lo CSCs (%) [1]: 11.40%
COI, Live Single CD44^hiCD24^lo CSCs (Cell Count) [1]: 147
Average Inhibition of CSCs (%) [1]: 79.32%
CD44^hiCD24^lo CSCs (%) Repeat 1 [1]: 19.67%
CD44^hiCD24^lo CSCs (%) Repeat 2 [1]: 18.31%
CD44^hiCD24^lo CSCs (%) Repeat 3 [1]: 17.67%
COI (Cell Count) [2]: 2072
COI, Live Single Cells (Cell Count) [2]: 1289
COI, Single (Cell Count) [2]: 1594
Total Cell Count [2]: 6480

CCCCCCCCCCCCCC(=O)N[C@@H](CC(C)C)C(=O)N[C@H](C(=O)N[C@@H](Cc1ccccc1)C(=O)N[C@H](C(=O)N[C@@H](Cc1ccccc1)C(=O)N[C@@H](CCCNC(=N)N)C(=O)N[C@@H](CC(C)C)C(=O)N[C@@H](CCCNC(=N)N)C(=O)N[C@@H](CCCCN)C(=O)NCC(=O)N[C@@H](CCCNC(=N)N)C(=O)N[C@@H](CCSC)C(=O)N[C@@H](CCSC)C(=O)N[C@@H](CC(=O)O)C(=O)N[C@H](C(=O)N[C@@H](CC(C)C)C(=O)N[C@@H](CCCCN)C(N)=O)C(C)C)[C@@H](C)CC)[C@@H](C)O [Peptide 2853842, Myristoyl-LTFIFRLRKGRMMDVLK-NH2] (Myristoyl-LTFIFRLRKGRMMDVLK-NH2)
Inhibition of CSCs (%) Repeat 1 [1]: 76.16%
Inhibition of CSCs (%) Repeat 2 [1]: 78.88%
Inhibition of CSCs (%) Repeat 3 [1]: 81.46%
CD44^hiCD24^lo CSCs (%) [1]: 12.39%
COI, Live Single CD44^hiCD24^lo CSCs (Cell Count) [1]: 27
Average Inhibition of CSCs (%) [1]: 78.83%
CD44^hiCD24^lo CSCs (%) Repeat 1 [1]: 21.37%
CD44^hiCD24^lo CSCs (%) Repeat 2 [1]: 18.95%
CD44^hiCD24^lo CSCs (%) Repeat 3 [1]: 16.64%
COI (Cell Count) [2]: 325
COI, Live Single Cells (Cell Count) [2]: 218
COI, Single (Cell Count) [2]: 249
Total Cell Count [2]: 3873

CCCCCCCCCCCCCC(=O)N[C@@H](CC(C)C)C(=O)N[C@H](C(=O)N[C@@H](Cc1ccccc1)C(=O)N[C@H](C(=O)N[C@@H](Cc1ccccc1)C(=O)N[C@@H](CCCNC(=N)N)C(=O)N[C@@H](CC(C)C)C(=O)N[C@@H](CCCNC(=N)N)C(=O)N[C@@H](CCCCN)C(=O)NCC(=O)N[C@@H](CCCNC(=N)N)C(=O)N[C@@H](CCSC)C(=O)N[C@@H](CCSC)C(=O)N[C@@H](CC(=O)O)C(=O)N[C@H](C(=O)N[C@@H](Cc1ccc(O)cc1)C(=O)N[C@@H](CCCCN)C(N)=O)C(C)C)[C@@H](C)CC)[C@@H](C)O [Peptide 2853843, Myristoyl-LTFIFRLRKGRMMDVYK-NH2] (Myristoyl-LTFIFRLRKGRMMDVYK-NH2)
Inhibition of CSCs (%) Repeat 1 [1]: 87.60%
Inhibition of CSCs (%) Repeat 2 [1]: 82.06%
Inhibition of CSCs (%) Repeat 3 [1]: 90.31%
CD44^hiCD24^lo CSCs (%) [1]: 7.50%
COI, Live Single CD44^hiCD24^lo CSCs (Cell Count) [1]: 6
Average Inhibition of CSCs (%) [1]: 86.66%
CD44^hiCD24^lo CSCs (%) Repeat 1 [1]: 11.11%
CD44^hiCD24^lo CSCs (%) Repeat 2 [1]: 16.09%
CD44^hiCD24^lo CSCs (%) Repeat 3 [1]: 8.70%
COI (Cell Count) [2]: 402
COI, Live Single Cells (Cell Count) [2]: 80
COI, Single (Cell Count) [2]: 298
Total Cell Count [2]: 9152
